Test results: US20060069132A1, “Azolecarboxamide herbicides” (priority 2004, published 2006)

Experiments:
Assay in all cases: Test E pre-/postemergence herbicide test
bermudagrass = type: in vivo, Cynodon dactylon; conditions: Preemergence
Method in brief: (§1)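 Greenhouse response scored visually 12 to 14 days after treatment versus controls, 0 meaning no effect and 100 complete control. Compounds, formulated with surfactant in a non-phytotoxic solvent blend, were sprayed either preemergence after sowing or postemergence at the 1- to 4-leaf stage (2 to 18 cm).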

common groundsel = type: in vivo, Senecio vulgaris; conditions: Preemergence
Method in brief: as §1

green foxtail = type: in vivo, Setaria viridis; conditions: Preemergence
Method in brief: as §1

guineagrass = type: in vivo, Panicum maximum; conditions: Preemergence
Method in brief: as §1

Italian ryegrass = type: in vivo, Lolium multiflorum; conditions: Preemergence
Method in brief: as §1

broadleaf signalgrass = type: in vivo, Brachiaria platyphylla; conditions: Preemergence
Method in brief: as §1

prickly sida = type: in vivo, Sida spinosa; conditions: Preemergence
Method in brief: as §1

johnsongrass = type: in vivo, Sorghum halepense; conditions: Preemergence
Method in brief: as §1

Surinam grass = type: in vivo, Urochloa decumbens; conditions: Preemergence, 125 g ai/ha; scale 0 to 100
Method in brief: as §1

downy bromegrass = type: in vivo, Bromus tectorum; conditions: Preemergence
Method in brief: as §1

quackgrass = type: in vivo, Elytrigia repens; conditions: Preemergence
Method in brief: as §1

[1] = 250 g ai/ha, scale 0 (no effect) to 100 (complete control)

## CCc1nn(C(C)C)nc1C(=O)Nc1cccc(C(=O)N2CCCCC2)c1 [Compound 385]
bermudagrass; 62 g ai/ha, scale 0 to 100
  Plant response rating, Bermudagrass: 20
bermudagrass; 125 g ai/ha, scale 0 to 100
  Plant response rating, Bermudagrass: 60
bermudagrass; [1]
  Plant response rating, Bermudagrass: 60
Common groundsel; 62 g ai/ha, scale 0 to 100
  Plant response rating, Groundsel: 0
Common groundsel; 125 g ai/ha, scale 0 to 100
  Plant response rating, Groundsel: 0
Common groundsel; [1]
  Plant response rating, Groundsel: 60
Green foxtail; 62 g ai/ha, scale 0 to 100
  Plant response rating, Foxtail, Green: 10
Green foxtail; 125 g ai/ha, scale 0 to 100
  Plant response rating, Foxtail, Green: 30
Green foxtail; [1]
  Plant response rating, Foxtail, Green: 60
guineagrass; 125 g ai/ha, scale 0 to 100
  Plant response rating, Guineagrass: 60
guineagrass; [1]
  Plant response rating, Guineagrass: 100
Italian ryegrass; 62 g ai/ha, scale 0 to 100
  Plant response rating, Ryegrass, Italian: 10
Italian ryegrass; 125 g ai/ha, scale 0 to 100
  Plant response rating, Ryegrass, Italian: 30
Italian ryegrass; [1]
  Plant response rating, Ryegrass, Italian: 60
Broadleaf signalgrass; 62 g ai/ha, scale 0 to 100
  Plant response rating, Signalgrass: 10
Broadleaf signalgrass; 125 g ai/ha, scale 0 to 100
  Plant response rating, Signalgrass: 20
Broadleaf signalgrass; [1]
  Plant response rating, Signalgrass: 20
Prickly sida; 62 g ai/ha, scale 0 to 100
  Plant response rating, Prickly Sida: 10
Prickly sida; 125 g ai/ha, scale 0 to 100
  Plant response rating, Prickly Sida: 100
Prickly sida; [1]
  Plant response rating, Prickly Sida: 100
johnsongrass; 62 g ai/ha, scale 0 to 100
  Plant response rating, Johnsongrass: 10
johnsongrass; 125 g ai/ha, scale 0 to 100
  Plant response rating, Johnsongrass: 10
johnsongrass; [1]
  Plant response rating, Johnsongrass: 30
Surinam grass
  Plant response rating, Surinam Grass: 20
Downy bromegrass; 62 g ai/ha, scale 0 to 100
  Plant response rating, Bromegrass, Downy: 10
Downy bromegrass; 125 g ai/ha, scale 0 to 100
  Plant response rating, Bromegrass, Downy: 10
Downy bromegrass; [1]
  Plant response rating, Bromegrass, Downy: 20
quackgrass; 62 g ai/ha, scale 0 to 100
  Plant response rating, Quackgrass: 10
quackgrass; 125 g ai/ha, scale 0 to 100
  Plant response rating, Quackgrass: 20
quackgrass; [1]
  Plant response rating, Quackgrass: 30
